Reference: patent US11001590B2, “Pyrazolopyrimidine derivatives” (BAYER ANIMAL HEALTH GMBH, priority 2016, dated 2021)

Key:
[1] = log P by HPLC on reversed phase columns (Method L0; [a] acidic, [b] neutral range)
Protocol: Calibration was done with straight-chain alkan-2-ones (with 3 to 16 carbon atoms) with known log P values (measurement of log P values using retention times with linear interpolation between successive alkanones). Lambda-max-values were determined using UV-spectra from 200 nm to 400 nm and the peak values of the chromatographic signals.

[2] = test system: Dirofilaria immitis microfilariae; assay: In vitro assay 3: Dirofilaria immitis microfilariae (DIROIM L1), motility; settings: 72 h, reduction of motility vs negative control, 72 h incubation
C. elegans Slo-1a = C. elegans Slo-1a (Caenorhabditis elegans, UniProt Q95V25); assay: In vitro assay 1: C. elegans Slo-1a, action at a recombinant C. elegans CHO cell line (membrane potential measurement)
Sequence of C. elegans Slo-1a (Q95V25 whole entry): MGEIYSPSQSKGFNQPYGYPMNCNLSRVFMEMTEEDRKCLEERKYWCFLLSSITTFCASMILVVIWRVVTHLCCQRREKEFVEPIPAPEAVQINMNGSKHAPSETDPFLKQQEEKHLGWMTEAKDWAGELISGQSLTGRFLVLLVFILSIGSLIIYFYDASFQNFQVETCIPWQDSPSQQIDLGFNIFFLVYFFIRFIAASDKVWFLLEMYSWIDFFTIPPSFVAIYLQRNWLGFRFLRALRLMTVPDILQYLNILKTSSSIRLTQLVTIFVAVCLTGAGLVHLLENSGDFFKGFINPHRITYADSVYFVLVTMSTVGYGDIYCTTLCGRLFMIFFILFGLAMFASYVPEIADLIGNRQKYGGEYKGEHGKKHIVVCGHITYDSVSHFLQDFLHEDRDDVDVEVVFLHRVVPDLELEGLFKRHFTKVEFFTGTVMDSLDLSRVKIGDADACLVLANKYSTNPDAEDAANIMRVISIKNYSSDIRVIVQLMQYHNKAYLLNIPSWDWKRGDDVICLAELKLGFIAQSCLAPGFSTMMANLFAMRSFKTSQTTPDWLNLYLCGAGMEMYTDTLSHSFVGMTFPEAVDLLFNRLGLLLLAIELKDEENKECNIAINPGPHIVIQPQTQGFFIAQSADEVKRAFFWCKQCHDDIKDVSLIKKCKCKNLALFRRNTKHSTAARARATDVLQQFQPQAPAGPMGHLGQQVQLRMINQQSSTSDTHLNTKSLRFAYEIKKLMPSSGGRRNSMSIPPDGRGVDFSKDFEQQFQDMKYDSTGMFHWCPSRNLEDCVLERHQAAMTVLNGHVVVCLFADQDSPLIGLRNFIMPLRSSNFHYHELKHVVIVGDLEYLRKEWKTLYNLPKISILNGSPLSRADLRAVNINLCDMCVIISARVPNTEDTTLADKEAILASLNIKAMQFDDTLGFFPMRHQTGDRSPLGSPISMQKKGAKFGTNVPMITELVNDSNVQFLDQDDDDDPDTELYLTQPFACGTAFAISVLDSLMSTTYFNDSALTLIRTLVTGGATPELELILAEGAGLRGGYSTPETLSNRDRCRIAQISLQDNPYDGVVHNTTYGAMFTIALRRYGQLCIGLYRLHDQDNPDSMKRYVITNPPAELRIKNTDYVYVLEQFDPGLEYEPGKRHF

| Structure (SMILES) | chromatographic logP [1] | EC50 [2] [µg/mL] | EC50 (C. elegans Slo-1a) [nM] |
| --- | --- | --- | --- |
| Cc1nn2c(C(C)C)c(C(=O)N[C@H]3CCc4ccccc43)cnc2c1-c1cccc(N2CCC2)c1 [Example 372] | 4.67 | < 1 | 15.8 |
| CCN(C)c1cccc(-c2c(C)nn3c(C(C)C)c(C(=O)N[C@H]4CCc5ccccc54)cnc23)c1 [Example 373] | 3.48 | < 1 | 39.8 |
| COCCn1cc(-c2c(C)nn3c(C(C)C)c(C(=O)N[C@H]4CCc5ccccc54)cnc23)cn1 [Example 375] | 3.26 | < 10 | 200 |
| COc1cc(Cl)cc(-c2c(C)nn3c(C(C)C)c(C(=O)N[C@H]4CCCc5ccccc54)cnc23)c1 [Example 378] | 5.55 | < 1 | 50.1 |
| CCN(CC)c1cccc(-c2c(C)nn3c(C(C)C)c(C(=O)N[C@H]4CCc5ccccc54)cnc23)c1 [Example 379] | 2.81 | < 1 | 100 |
| CSCc1cccc(-c2c(C)nn3c(C(C)C)c(C(=O)N[C@H]4CCc5ccccc54)cnc23)c1 [Example 388] | 5 | < 1 | 7.94 |
| Cc1nn2c(C(C)C)c(C(=O)N[C@H]3CCc4ccccc43)cnc2c1-c1cccc(COCC2CC2)c1 [Example 389] | 5.24 | < 10 | 251 |
| CCCOCc1cccc(-c2c(C)nn3c(C(C)C)c(C(=O)N[C@H]4CCc5ccccc54)cnc23)c1 [Example 390] | 5.4 | < 10 | 39.8 |
| COc1cc(-c2c(C)nn3c(C(C)C)c(C(=O)N[C@H]4CCOc5ccccc54)cnc23)cc(C(F)(F)F)c1 [Example 391] | 5.13 | < 1 | 25.1 |
| Cc1nn2c(C(C)C)c(C(=O)N[C@H]3CCOc4ccccc43)cnc2c1-c1cccc(OC(F)(F)F)c1 [Example 394] | 5.19 | < 0.1 | 15.8 |
| Cc1nn2c(C(C)C)c(C(=O)N[C@H]3CCc4ccccc43)cnc2c1-c1cnn(C(C)C)c1 [Example 398] | 3.77 | < 1 | 20 |
| Cc1nn2c(C(C)C)c(C(=O)N[C@H]3CCc4ccccc43)cnc2c1-c1cccc(CN2CCN(C)CC2)c1 [Example 399] | 1.98 | < 10 | 7940 |
| Cc1nn2c(C(C)C)c(C(=O)N[C@H]3CCc4ccccc43)cnc2c1-c1cccc(CS(C)(=O)=O)c1 [Example 400] | 3.39 | < 10 | 126 |
| CC(C)c1c(C(=O)N[C@H]2CCc3ccccc32)cnc2c(-c3cccc(N(C)C)c3)c(C3CC3)nn12 [Example 407] | 4.81 | < 10 | 126 |
| COc1cccc(-c2c(C3CC3)nn3c(C(C)C)c(C(=O)N[C@H]4CCc5ccccc54)cnc23)c1 [Example 408] | 5.19 | < 10 | 316 |
| CC(C)c1c(C(=O)N[C@H]2CCc3ccccc32)cnc2c(-c3c(F)cccc3F)c(C3CC3)nn12 [Example 413] | 4.96 | < 1 | 251 |
| Cc1nn2c(C3CC3)c(C(=O)N[C@H]3CCc4ccccc43)cnc2c1-c1cccc(OC(F)F)c1 [Example 417] | 4.01 | < 0.1 | 7.94 |
| Cc1nn2c(C3CC3)c(C(=O)N[C@H]3CCc4ccccc43)cnc2c1-c1cccc(OC2CC2)c1 [Example 418] | 4.29 | < 0.1 | 3.16 |
| Cc1nn2c(C(C)C)c(C(=O)N[C@H]3CCCc4ccccc43)cnc2c1-c1cnn(CC2CC2)c1 [Example 420] | 4.13 | < 10 | 7.94 |
| COc1cc(-c2c(C)nn3c(C4CC4)c(C(=O)N[C@H]4CCc5ccccc54)cnc23)cc(C(F)(F)F)c1 [Example 423] | 4.7 | < 10 | 63.1 |
| Cc1nn2c(C3CC3)c(C(=O)N[C@H]3CCc4ccccc43)cnc2c1-c1cc(Cl)cc(C(F)(F)F)c1 [Example 425] | 5.34 | < 10 | 79.4 |
| CC(C)c1c(C(=O)N[C@H]2CCc3ccccc32)cnc2c(-c3cccc(N(C)C)c3)c(C(F)F)nn12 [Example 427] | 4.3 | < 10 | 20 |
| COc1cccc(-c2c(C(F)F)nn3c(C(C)C)c(C(=O)N[C@H]4CCc5ccccc54)cnc23)c1 [Example 428] | 4.42 | < 0.1 | 25.1 |
| CC(C)c1c(C(=O)N[C@H]2CCc3ccccc32)cnc2c(-c3cccc(F)c3)c(C(F)F)nn12 [Example 429] | 4.57 | < 10 | 39.8 |
| COCc1cccc(-c2c(C(F)F)nn3c(C(C)C)c(C(=O)N[C@H]4CCc5ccccc54)cnc23)c1 [Example 430] | 4.36 | < 1 | 15.8 |

| Structure (SMILES) | chromatographic logP [1] | EC50 [2] [µg/mL] | EC50 (C. elegans Slo-1a) [nM] |
| --- | --- | --- | --- |
| CC(C)c1c(C(=O)N[C@H]2CCc3ccccc32)cnc2c(-c3cccc(OC(F)(F)F)c3)c(C(F)F)nn12 [Example 431] | 5.18 | < 10 | 6.31 |
| CC(C)c1c(C(=O)N[C@H]2CCc3ccccc32)cnc2c(-c3cccc(C(F)(F)F)c3)c(C(F)F)nn12 [Example 433] | 5.03 | < 10 | 10 |
| CC(C)c1c(C(=O)N[C@H]2CCc3ccccc32)cnc2c(-c3ccccc3Cl)c(C(F)F)nn12 [Example 435] | 4.43 | < 0.1 | 25.1 |
| COc1cccc(-c2c(C)nn3c(C4CC4)c(C(=O)N[C@H]4CCCc5ccccc54)cnc23)c1 [Example 439] | 4.03 | < 0.1 | 6.31 |
| Cc1nn2c(C3CC3)c(C(=O)N[C@H]3CCc4ccccc43)cnc2c1-c1cccc(N2CC(F)(F)C2)c1 [Example 441] | 4.16 | < 1 | 10 |
| Cc1nn2c(C(C)C)c(C(=O)N[C@H]3CCc4ccccc43)cnc2c1-c1cccc(S(=O)(=O)C2CC2)c1 [Example 443] | 3.99 | < 10 | 50.1 |
| Cc1nn2c(C(C)C)c(C(=O)N[C@H]3CCOc4ccccc43)cnc2c1-c1cccc(N2CC(C#N)C2)c1 [Example 444] | 3.91 | < 10 | 15.8 |
| Cc1nn2c(C3CC3)c(C(=O)N[C@H]3CCc4ccccc43)cnc2c1-c1cnn(CC2CC2)c1 [Example 446] | 3.15 | < 10 | 12.6 |
| Cc1nn2c(C(C)C)c(C(=O)N[C@H]3CCc4ccccc43)cnc2c1-n1cc(Cl)cn1 [Example 447] | 4.13 | < 10 | 398 |
| Cc1nn2c(C3CC3)c(C(=O)N[C@H]3CCOc4ccccc43)cnc2c1-c1cccc(C(F)(F)F)c1 [Example 449] | 4.31 | < 0.1 | 6.31 |
| COc1cccc(-c2c(C)nn3c(C4CC4)c(C(=O)N[C@H]4CCOc5ccccc54)cnc23)c1 [Example 454] | 3.5 | < 0.1 | 3.98 |
| Cc1nn2c(C3CC3)c(C(=O)N[C@H]3CCOc4ccccc43)cnc2c1-c1cccc(Cl)c1 [Example 455] | 4.13 | < 0.1 | 6.31 |
| Cc1nn2c(C3CC3)c(C(=O)N[C@H]3CCOc4ccccc43)cnc2c1-c1cccc(F)c1 [Example 456] | 3.71 | < 0.1 | 6.31 |
| Cc1nn2c(C3CC3)c(C(=O)N[C@H]3CCc4ccccc43)cnc2c1-c1cccc(N2CC(C#N)C2)c1 [Example 460] | 3.44 | < 10 | 39.8 |
| Cc1nn2c(C3CC3)c(C(=O)N[C@H]3CCOc4ccccc43)cnc2c1-c1cccc(OC(F)(F)F)c1 [Example 462] | 4.47 | < 0.1 | 6.31 |
| Cc1nn2c(C3CC3)c(C(=O)N[C@H]3CCOc4ccccc43)cnc2c1-c1cccc(N2CC(F)(F)C2)c1 [Example 464] | 3.92 | < 0.1 | 3.16 |
| Cc1nn2c(C3CC3)c(C(=O)N[C@H]3CCc4ccccc43)cnc2c1-c1cccc(N2CC(F)C2)c1 [Example 466] | 3.85 | < 10 | 10 |
| Cc1nn2c(C3CC3)c(C(=O)N[C@H]3CCOc4ccccc43)cnc2c1-c1cc(Cl)cc(Cl)c1 [Example 469] | 4.96 | < 0.1 | 15.8 |
| Cc1nn2c(C3CC3)c(C(=O)N[C@H]3CCOc4ccccc43)cnc2c1-c1ccc(F)c(F)c1 [Example 471] | 3.86 | < 0.1 | 3.98 |
| Cc1nn2c(C3CC3)c(C(=O)N[C@H]3CCOc4ccccc43)cnc2c1-c1cc(Cl)c(F)c(Cl)c1 [Example 476] | 4.95 | < 1 | 6.31 |
| Cc1nn2c(N(C)C)c(C(=O)N[C@H]3CCOc4ccccc43)cnc2c1-c1cc(Cl)cc(Cl)c1 [Example 520] | 4.92 | < 0.1 | 7.94 |
| Cc1nn2c(C3CC3)c(C(=O)N[C@H]3CCOc4ccccc43)cnc2c1-c1ccc(Cl)nc1 [Example 525] | 2.96 | < 10 | 79.4 |
| Cc1nn2c(C3CC3)c(C(=O)N[C@H]3CCOc4ccccc43)cnc2c1-c1ccnc(N2CCOCC2)c1F [Example 527] | 2.96 | < 10 | 31.6 |
| CC(=O)Nc1cc(-c2c(C)nn3c(C4CC4)c(C(=O)N[C@H]4CCOc5ccccc54)cnc23)ccn1 [Example 528] | 1.69 | < 10 | 1260 |
| Cc1ccccc1-c1c(C)nn2c(N3CCOCC3)c(C(=O)N[C@H]3CCOc4ccccc43)cnc12 [Example 536] | 4.18 | < 0.1 | 5.01 |
